Measurements taken from US8680052B1, “Methods of treating, reducing the incidence of, and/or preventing ischemic events” (The Medicines Company, priority 2013, dated 2014).

Legend:
[1] = test system: patients with acute coronary syndromes undergoing PCI; assay: Example 2: bleeding (GUSTO, TIMI, ACUITY) and adverse events up to 48 hours; assay type: in vivo, human
Description: Multiple definitions of bleeding were used for full disclosure of bleeding risks associated with cangrelor: […] N Engl J Med 329:673-82 (1993); mild, moderate, or severe/life-threatening based on transfusion use and presence/absence of hemodynamic compromise); […] Investigators reported adverse and serious adverse events according to International Conference on Harmonization guidance (International Conference on Harmonization (ICH) Guidance Documents. U.S. Food and Drug Administration Web site. (Accessed on Oct. 8, 2009, at the FDA website beginning with “www.” and ending with “fda.gov/RegulatoryInformation/Guidances/ucm122049.htm”)).

P2Y12 receptor [2] = target: T1, P2Y12 receptor (Homo sapiens, UniProt Q9H244); assay: Example 2 substudy: platelet function by VerifyNow P2Y12 Assay; assay type: in vivo
T1 construct: from tissue; host or cells: platelets in whole blood of patients
T1 sequence (Q9H244 whole entry): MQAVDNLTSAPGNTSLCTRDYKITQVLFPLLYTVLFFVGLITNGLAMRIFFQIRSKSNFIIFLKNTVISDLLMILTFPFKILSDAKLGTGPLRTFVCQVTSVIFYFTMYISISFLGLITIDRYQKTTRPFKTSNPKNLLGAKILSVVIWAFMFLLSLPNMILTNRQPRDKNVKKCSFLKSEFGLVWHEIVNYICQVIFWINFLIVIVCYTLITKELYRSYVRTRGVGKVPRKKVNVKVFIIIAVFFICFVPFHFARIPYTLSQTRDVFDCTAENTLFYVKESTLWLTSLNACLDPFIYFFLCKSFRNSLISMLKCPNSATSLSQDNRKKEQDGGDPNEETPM
Protocol: Platelet function parameters were measured using the VerifyNow® P2Y12 Assay (Accumetrics, San Diego, Calif.). Samples were taken before study drug administration, at approximately 2 hours (during cangrelor/placebo infusion), and 10 hours or next day following randomization.

P2Y12 receptor [3] = target: T1, P2Y12 receptor; assay: Example 4: VerifyNow P2Y12 assay, platelet reactivity in PRU; assay type: in vivo
Protocol: The study involved 12 patients who met the criteria of being 18-75 years of age, having coronary artery disease (CAD) documented by a previous MI or coronary revascularization, and taking 81 mg of aspirin daily. […] Use of non-steroidal anti-inflammatory agents was discouraged during study participation but not prohibited.
Each patient was administered a 30 μg/kg bolus of cangrelor followed immediately by a 2 hr infusion at a rate of 4.0 μg/kg/min. A loading dose of ticagrelor (180 mg) was given after 0.5 hr or 1.25 hr (n=6 for each). Blood for pharmacodynamic platelet function studies was taken after 0.5 or 1.25 hr (corresponding to the time of ticagrelor load, n=6 for each), and then at 1.75, 2, 2.25, 2.5, 2.75, 3, 4, and 5.25 hr. Patients were assigned randomly to receive either 6 (n=6) or 7 (n=6) doses of ticagrelor to be taken every 12 hours following the discontinuation of the infusion of cangrelor. On study day 5, each patient was administered a 30 μg/kg bolus of cangrelor followed immediately by a 2 hr infusion at a rate of 4.0 μg/kg/min. Blood for pharmacodynamic assessment was taken after 1 and 2 hr. Adverse events were queried throughout study participation that ended with a telephone interview performed on study day 10-12.
Pharmacodynamic assessment included light transmission aggregometry (LTA), VerifyNow® P2Y12 assay, vasodilator-stimulated phosphoprotein (VASP) index, and platelet activation measured with the use of flow cytometry. Assessment of LTA, VerifyNow®, and platelet activation with the use of flow cytometry was performed within 30 min of blood being taken. In the case of flow cytometry, samples were processed to fixation and then batched for analysis. For VASP, index samples were batched and processed as recommended by the vendor within 2 h of blood being taken. This approach limited the time from fixation of VASP index to flow analysis to less than 1 h.
LTA induced by 5 μM and 20 μM adenosine diphosphate (ADP) was quantified ex vivo (i.e. in non-adjusted platelet rich plasma). Platelet-poor plasma was set as 100% aggregation, and both maximal (peak) and terminal (at 300 s) aggregation were measured with a PAP4 aggregometer (BioData, Horsham, Pa.). VerifyNow® P2Y12 assay (Accumetrics Inc, San Diego, Calif.) that measures the effects of drugs on the P2Y12 receptor by activating platelets with prostaglandin El in addition to ADP was used in accordance with the instructions provided by the manufacturer. Platelet reactivity was expressed in P2Y12 reaction units (PRU). Activation of platelets was identified with the use of flow cytometry as previously described.^17. And to determine the VASP index, a commercially available kit (Diagnostica Stago, Inc, Parsippany NJ) was used. ^17 Schneider D J, Sobel B E. Streamlining the design of promising clinical trials: in-vitro testing of antithrombotic regimens and multiple agonists of platelet activation. Coron Artery Dis. 2009; 20:175-8.

[4] = Study Day 1, 1.75 h, Ticagrelor at 0.5 hr
[5] = Study Day 1, 1.75 h, Ticagrelor at 1.25 hr
[6] = Study Day 1, 2.0 h, Ticagrelor at 0.5 hr
[7] = Study Day 1, 2.0 h, Ticagrelor at 1.25 hr
[8] = Study Day 1, reference 0.5/1.25 h, All
[9] = Study Day 1, reference 0.5/1.25 h, Ticagrelor at 0.5 hr
[10] = Study Day 1, reference 0.5/1.25 h, Ticagrelor at 1.25 hr
[11] = Study Day 5, 1.0 h, Ticagrelor 6 doses
[12] = Study Day 5, 1.0 h, Ticagrelor 7 doses
[13] = Study Day 5, 2.0 h, Ticagrelor 6 doses
[14] = Study Day 5, 2.0 h, Ticagrelor 7 doses

In the case of `CSCCNc1nc(SCCC(F)(F)F)nc2c1ncn2[C@@H]1O[C@H](COP(=O)(O)OP(=O)(O)C(Cl)(Cl)P(=O)(O)O)[C@@H](O)[C@H]1O` [Cangrelor, cangrelor], the “OR (95% CI): Hematoma ≧5 cm at puncture site” value ([1]; 48-hour, safety population, cangrelor vs clopidogrel) is reported as 1.12 (0.82, 1.53), the “ACUITY criteria Major bleeding” value ([1]; human, in vivo, 48 h) is reported as 158 (3.6) no. (%) and the “ACUITY criteria Minor bleeding” value ([1]; human, in vivo, 48 h) is reported as 768 (17.6) no. (%). For the same compound, the “Access site bleeding requiring radiologic or surgical intervention” value ([1]; human, in vivo, 48 h) was 6 (0.1) no. (%), the Any blood transfusion ([1]; human, in vivo, 48 h) was 46 (1.1) no. (%) and the Any platelet transfusion ([1]; human, in vivo, 48 h) was 6 (0.1) no. (%). The “Drop in hemoglobin and/or hematocrit” value ([1]; human, in vivo, 48 h) was 91 (2.1) no. (%), the Dyspnea ([1]; human, in vivo, 48 h) was 1.0% and the Ecchymosis ([1]; human, in vivo, 48 h) was 284 (6.5) no. (%). The Epistaxis ([1]; human, in vivo, 48 h) was 9 (0.2) no. (%), the “GUSTO criteria Mild bleeding” value ([1]; human, in vivo, 48 h) was 858 (19.6) no. (%) and the “GUSTO criteria Moderate bleeding” value ([1]; human, in vivo, 48 h) was 41 (0.9) no. (%). The “GUSTO criteria Severe/life-threatening bleeding” value ([1]; human, in vivo, 48 h) was 10 (0.2) no. (%), the “Hematoma <5 cm at puncture site” value ([1]; human, in vivo, 48 h) was 251 (5.7) no. (%) and the “Hematoma ≧5 cm at puncture site” value ([1]; human, in vivo, 48 h) was 85 (1.9) no. (%). The Hemodynamic compromise ([1]; human, in vivo, 48 h) was 9 (0.2) no. (%), the Intracranial hemorrhage ([1]; human, in vivo, 48 h) was 1 (0.0) no. (%) and the Intraocular ([1]; human, in vivo, 48 h) was 2 (0.0) no. (%). For the same compound, the “OR (95% CI): ACUITY criteria Major bleeding” value ([1]; human, in vivo, 48 h) was 1.26 (0.99, 1.60), the “OR (95% CI): ACUITY criteria Minor bleeding” value ([1]; human, in vivo, 48 h) was 1.19 (1.06, 1.33) and the “OR (95% CI): Access site bleeding requiring radiologic or surgical intervention” value ([1]; human, in vivo, 48 h) was 0.60 (0.22, 1.65). The “OR (95% CI): Any blood transfusion” value ([1]; human, in vivo, 48 h) was 1.09 (0.72, 1.67), the “OR (95% CI): Any platelet transfusion” value ([1]; human, in vivo, 48 h) was 1.20 (0.37, 3.93) and the “OR (95% CI): Drop in hemoglobin and/or hematocrit” value ([1]; human, in vivo, 48 h) was 1.45 (1.05, 2.01). For the same compound, the “OR (95% CI): Ecchymosis” value ([1]; human, in vivo, 48 h) was 1.23 (1.03, 1.47), the “OR (95% CI): Epistaxis” value ([1]; human, in vivo, 48 h) was 0.41 (0.19, 0.89) and the “OR (95% CI): GUSTO criteria Mild bleeding” value ([1]; human, in vivo, 48 h) was 1.20 (1.07, 1.34). The “OR (95% CI): GUSTO criteria Moderate bleeding” value ([1]; human, in vivo, 48 h) was 1.21 (0.76, 1.90), the “OR (95% CI): GUSTO criteria Severe/life-threatening bleeding” value ([1]; human, in vivo, 48 h) was 0.91 (0.39, 2.14) and the “OR (95% CI): Hematoma <5 cm at puncture site” value ([1]; human, in vivo, 48 h) was 1.14 (0.94, 1.37). For the same compound, the “OR (95% CI): Hemodynamic compromise” value ([1]; human, in vivo, 48 h) was 0.82 (0.34, 1.97), the “OR (95% CI): Oozing at puncture site” value ([1]; human, in vivo, 48 h) was 1.28 (1.10, 1.49) and the “OR (95% CI): Reoperation for bleeding” value ([1]; human, in vivo, 48 h) was 1.00 (0.06, 15.96). For the same compound, the “OR (95% CI): Retroperitoneal” value ([1]; human, in vivo, 48 h) was 1.50 (0.67, 3.34), the “OR (95% CI): TIMI criteria Major bleeding” value ([1]; human, in vivo, 48 h) was 1.36 (0.68, 2.71) and the “OR (95% CI): TIMI criteria Minor bleeding” value ([1]; human, in vivo, 48 h) was 1.39 (0.84, 2.30). The “OR (95% CI): Thrombocytopenia” value ([1]; human, in vivo, 48 h) was 0.86 (0.29, 2.55), the “Oozing at puncture site” value ([1]; human, in vivo, 48 h) was 400 (9.1) no. (%) and the Reoperation for bleeding ([1]; human, in vivo, 48 h) was 1 (0.0) no. (%). The Reported adverse events ([1]; human, in vivo, 48 h) was 26.4%, the Retroperitoneal ([1]; human, in vivo, 48 h) was 15 (0.3) no. (%) and the Serious adverse events ([1]; human, in vivo, 48 h) was 2.7%. The “TIMI criteria Major bleeding” value ([1]; human, in vivo, 48 h) was 19 (0.4) no. (%), the “TIMI criteria Minor bleeding” value ([1]; human, in vivo, 48 h) was 36 (0.8) no. (%) and the Thrombocytopenia ([1]; human, in vivo, 48 h) was 6 (0.1) no. (%). The “discontinuation of study drug due to an adverse event” value ([1]; human, in vivo, 48 h) was 0.5%, the “median PRU (VerifyNow P2Y12 assay)” value (P2Y12 receptor [2]; 12-24 hours after discontinuation of the cangrelor infusion) was 228 PRU and the “median PRU (VerifyNow P2Y12 assay)” value (P2Y12 receptor [2]; during the study drug infusion (approx. 2 hours)) was 93.5 PRU. The “VerifyNow IPR” value (P2Y12 receptor [3]; Study Day 1, 1.75 h, All) was 99 ± 1, the “VerifyNow PRU” value (P2Y12 receptor [3]; Study Day 1, 1.75 h, All) was 3.8 ± 2.6 PRU and the “VerifyNow IPR” value (P2Y12 receptor [3]; [4]) was 99 ± 1. For the same compound, the “VerifyNow PRU” value (P2Y12 receptor [3]; [4]) was 3.8 ± 2.6 PRU, the “VerifyNow IPR” value (P2Y12 receptor [3]; [5]) was 99 ± 1 and the “VerifyNow PRU” value (P2Y12 receptor [3]; [5]) was 3.7 ± 2.8 PRU. The “VerifyNow IPR” value (P2Y12 receptor [3]; Study Day 1, 2.0 h, All) was 98 ± 3, the “VerifyNow PRU” value (P2Y12 receptor [3]; Study Day 1, 2.0 h, All) was 6.4 ± 7.5 PRU and the “VerifyNow IPR” value (P2Y12 receptor [3]; [6]) was 97 ± 2. The “VerifyNow PRU” value (P2Y12 receptor [3]; [6]) was 6.9 ± 4.9 PRU, the “VerifyNow IPR” value (P2Y12 receptor [3]; [7]) was 98 ± 4 and the “VerifyNow PRU” value (P2Y12 receptor [3]; [7]) was 5.9 ± 9.9 PRU. For the same compound, the “VerifyNow IPR” value (P2Y12 receptor [3]; [8]) was 97 ± 3, the “VerifyNow PRU” value (P2Y12 receptor [3]; [8]) was 7.3 ± 9.3 PRU and the “VerifyNow IPR” value (P2Y12 receptor [3]; [9]) was 97 ± 4. For the same compound, the “VerifyNow PRU” value (P2Y12 receptor [3]; [9]) was 8.8 ± 12 PRU, the “VerifyNow IPR” value (P2Y12 receptor [3]; [10]) was 98 ± 3 and the “VerifyNow PRU” value (P2Y12 receptor [3]; [10]) was 5.8 ± 7.3 PRU. The “VerifyNow IPR” value (P2Y12 receptor [3]; Study Day 5, 1.0 h, All) was 99 ± 1, the “VerifyNow PRU” value (P2Y12 receptor [3]; Study Day 5, 1.0 h, All) was 3.3 ± 2 PRU and the “VerifyNow IPR” value (P2Y12 receptor [3]; [11]) was 99 ± 1. The “VerifyNow PRU” value (P2Y12 receptor [3]; [11]) was 2.8 ± 1.9 PRU, the “VerifyNow IPR” value (P2Y12 receptor [3]; [12]) was 98 ± 1 and the “VerifyNow PRU” value (P2Y12 receptor [3]; [12]) was 3.9 ± 2.1 PRU. For the same compound, the “VerifyNow IPR” value (P2Y12 receptor [3]; Study Day 5, 2.0 h, All) was 98 ± 3, the “VerifyNow PRU” value (P2Y12 receptor [3]; Study Day 5, 2.0 h, All) was 4.5 ± 6.4 PRU and the “VerifyNow IPR” value (P2Y12 receptor [3]; [13]) was 99 ± 1. The “VerifyNow PRU” value (P2Y12 receptor [3]; [13]) was 2.4 ± 1.9 PRU, the “VerifyNow IPR” value (P2Y12 receptor [3]; [14]) was 97 ± 3 and the “VerifyNow PRU” value (P2Y12 receptor [3]; [14]) was 6.5 ± 8.8 PRU.
